Assay results reported in PubChem BioAssay (NCI).
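Interpolation was linear, between the two tested concentrations surrounding the appropriate level; five concentrations were tested over 48 hours in 96-well plates. The concentration for full growth arrest is given as TGI.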

What was measured:
Assay in all cases: growth of human tumour cells (NCI), 48 h
MALME-3M melanoma = test system: MALME-3M melanoma
HL-60(TB) leukemia = test system: HL-60(TB) leukemia
OVCAR-4 ovarian = test system: OVCAR-4 ovarian
SNB-19 CNS = test system: SNB-19 CNS
KM12 colon = test system: KM12 colon
MCF7 breast = test system: MCF7 breast
CAKI-1 renal = test system: CAKI-1 renal
SF-295 CNS = test system: SF-295 CNS
A549 NSCLC = test system: A549 NSCLC
BT-549 breast = test system: BT-549 breast

| Compound | TGI (MALME-3M melanoma) | TGI (HL-60(TB) leukemia) | TGI (OVCAR-4 ovarian) | TGI (SNB-19 CNS) | TGI (KM12 colon) | TGI (MCF7 breast) | TGI (CAKI-1 renal) | TGI (SF-295 CNS) | TGI (A549 NSCLC) | TGI (BT-549 breast) |
| --- | --- | --- | --- | --- | --- | --- | --- | --- | --- | --- |
| COC(=O)/C=C(/C=C1/C(C#N)=C(N)N(c2ccc(Cl)cc2)C1(C)/C(=C\C(=O)OC)C(=O)OC)C(=O)OC (stereo not given) | 58.8 µM | > 100 µM | 60.5 µM | > 100 µM | 37 µM | 46.2 µM | 45.5 µM | > 100 µM | > 100 µM | 30.2 µM |
| CN(C)CCn1c(=O)c2ccc(NCCCN(C)CCCNc3ccc4c(=O)n(CCN(C)C)c(=O)n5c6ccc(O)cc6c(=O)c3c45)c3c(=O)c4cc(O)ccc4n(c1=O)c23 | 0.598 µM | 0.701 µM | 0.177 µM | 1.54 µM | 0.553 µM | 0.71 µM | 2.23 µM | 2.33 µM | 0.786 µM | 0.691 µM |
| CC1(C)CC(=O)C2=C(C1)C(c1ccccc1Cl)C1C(=O)CC(C)(C)CC1(O)O2 (stereo not given) | > 100 µM | > 43.7 µM | > 100 µM | > 100 µM | > 100 µM | > 100 µM | > 100 µM | > 31.6 µM | > 100 µM | > 100 µM |
| O=CC(I)=C(c1ccccc1)c1ccccc1 | 30.8 µM | 38.6 µM | 27.3 µM | 30.1 µM | 28.7 µM | 31.9 µM | 30.4 µM | 31.6 µM | 36.1 µM | 30 µM |
| [N-]=[N+]=CC(=O)C1CCCN1C(=O)c1ccccc1 (stereo not given) | > 10 µM | > 10 µM | > 10 µM | > 10 µM | > 10 µM | > 10 µM | > 10 µM | > 10 µM | > 10 µM | > 10 µM |
| CCOC(=O)CSc1nc(N)c2c(-c3ccccc3)c3c(nc2n1)CCCC3 | > 100 µM | > 100 µM | > 100 µM | > 100 µM | > 100 µM | > 100 µM | > 100 µM | > 100 µM | > 100 µM | > 100 µM |
| Clc1cccc(-c2sc(-c3cccs3)cc2Cc2cccs2)c1 | > 10 µM | > 10 µM | > 10 µM | > 10 µM | > 10 µM | > 10 µM | > 10 µM | > 10 µM | > 10 µM | > 10 µM |
| O=C(CC(NC(=O)C(F)(F)F)C(=O)O)OCc1ccccc1 (stereo not given) | > 100 µM | > 100 µM | > 100 µM | > 100 µM | > 100 µM | > 100 µM | > 100 µM | > 100 µM | > 100 µM | > 100 µM |
| Cn1c2ccccc2c2ccc3c(c21)C(=O)c1ccc2c4ccccc4n(C)c2c1C3=O | > 100 µM | > 100 µM | > 100 µM | > 100 µM | > 100 µM | > 100 µM | > 100 µM | > 100 µM | > 100 µM | > 100 µM |
| COc1ccc2ccc3oc(=O)c(C)cc3c2c1 | > 100 µM | > 100 µM | > 100 µM | > 100 µM | > 100 µM | > 100 µM | > 100 µM | > 100 µM | > 100 µM | > 100 µM |
| N#Cc1c(-c2ccc([N+](=O)[O-])cc2)cc(-c2ccc(Nc3ccnc4cc(Cl)ccc34)cc2)[nH]c1=O | > 100 µM | > 100 µM | > 100 µM | > 100 µM | > 100 µM | > 100 µM | > 100 µM | > 100 µM | > 100 µM | > 100 µM |
| COc1ccc2nc(NC(=O)/C(C#N)=C/c3ccccc3)sc2c1 | > 100 µM | 36.7 µM | > 100 µM | > 100 µM | > 73.3 µM | > 100 µM | > 100 µM | > 100 µM | > 100 µM | > 100 µM |
| O=C(NCc1ccccc1)c1cc2ccccc2oc1=Nc1cccc(C(F)(F)F)c1 | > 100 µM | 49.9 µM | > 100 µM | > 100 µM | > 100 µM | > 100 µM | > 100 µM | > 100 µM | > 100 µM | > 100 µM |
| CC1=CC2C3(C)C(C)(C(C)=CP3(=O)c3c(C(C)C)cc(C(C)C)cc3C(C)C)C1P2(=O)c1c(C(C)C)cc(C(C)C)cc1C(C)C (stereo not given) | 5.79 µM | 3.85 µM | 16.1 µM | 15.8 µM | 4.05 µM | 6.38 µM | 15.9 µM | 6.72 µM | 9.08 µM | 4.58 µM |
| O=C(ON=C1c2ccccc2C(Br)C(Br)c2ccccc21)c1ccccc1 (stereo not given) | 37.1 µM | 1.22 µM | 30 µM | 62.1 µM | 33.5 µM | 31.5 µM | 23.7 µM | 36.4 µM | 44 µM | 35.7 µM |
| OCc1ccc2c(c1)CC1(C2)Cc2cc3c(cc2C1O)CCC3 (stereo not given) | 19.2 µM | > 23.4 µM | 36.3 µM | > 100 µM | 16.5 µM | 17.6 µM | 27 µM | 12.4 µM | > 70.7 µM | 16 µM |
